Measurements reported in patent publication US20200046856A1, “METHODS FOR IDENTIFYING MBLAC1-DEPENDENT MOLECULAR NETWORKS” (Florida Atlantic University Board of Trustees, priority 2018, published 2020).
Entries after “also recorded” stand apart in the source; their conditions may differ.

Assays:
[1] = system: MBLAC1 WT and MBLAC1 KO mice; assay: Effect of repeated Cef on cocaine-induced locomotion (open field); type: in vivo, mouse; settings: 200 mg/kg IP once daily for 10 days, cocaine 10 mg/kg 24 h later, first 30 min
Description: Animals: All mice were used in accordance with protocols approved by the Florida Atlantic University Institutional Animal Care and Use Committee. Mice were group-housed on a 12 h/12 h light/dark cycle and given ad libitum access to food and water. Breeding was accomplished with mating of heterozygous males with heterozygous females. Male and female mice 11-13 weeks old at the start of the experiment were used in testing the effects of repeated ceftriaxone on response to cocaine in the open field assay. Data from males and females were combined.
Repeated ceftriaxone treatment/acute cocaine administration: MBLAC1 wild-type (WT, MBLAC1^+/+) and knockout mice (MBLAC1^−/−) were used in this experiment. Mice were injected IP once daily for 10 days with 200 mg/kg ceftriaxone (CEF) or saline. Twenty-four hours following the last CEF injection, mice were injected with 10 mg/kg cocaine or saline followed immediately by testing in open field activity chambers (Med Associates, Fairfax, Vt.) for 60 minutes. Locomotor activity was evaluated by photocells in the X, Y and Z dimensions. Horizontal beam breaks, vertical beam breaks, and repetitive movements were recorded and measures, including distance traveled, vertical rearing and stereotypic counts, were calculated. Data were analyzed in 5 min time bins within session, and for the first 30 min following cocaine injection. Data were analyzed by two-way ANOVA repeated measures, with time bin as the repeated measure, or by two-way ANOVA for 30 min cumulated data. At the end of behavior, mice were euthanized by CO2.
The methods were performed essentially as described in Tallarida et al. Neurosci Lett vol. 556, p. 155-159, 2013.

MBLAC1 [2] = assay: Affinity capture of MBLAC1 with Cef-conjugated Sepharose beads, free Cef competition; settings: 50 μM free Cef preincubated with MBLAC1 containing extract; n=6
mouse MBLAC1 = target: T1, mouse MBLAC1 (Mus musculus, UniProt Q8BWY4); assay: Backscattering Interferometry (BSI) binding assay, lysates of T-REx cells expressing mouse MBLAC1; settings: for BSI binding signal: TET induced vs non-induced T-REx lysates, mouse MBLAC1, 5 μM and 50 μM
T1 construct: expressed in transfected cells; host or cells: HEK Flp-In T-REx-293 cells, pcDNA5/FRT/TO, TET-induced, lysate
T1 sequence (Q8BWY4 1-260): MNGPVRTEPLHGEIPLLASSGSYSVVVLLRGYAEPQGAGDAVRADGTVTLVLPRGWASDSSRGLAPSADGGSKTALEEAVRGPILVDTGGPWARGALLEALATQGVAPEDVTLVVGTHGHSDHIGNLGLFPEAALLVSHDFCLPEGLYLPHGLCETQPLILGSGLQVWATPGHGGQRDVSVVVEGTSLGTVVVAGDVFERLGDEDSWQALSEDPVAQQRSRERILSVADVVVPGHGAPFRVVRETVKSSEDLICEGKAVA
Description: Although the pulldown approach provided initial evidence of Cef interactions with MBLAC1, the efficiency of competition was lower than expected, based on prior studies reporting the in vitro potency of Cef for GLT-1 induction. It was reasoned that steric hindrance could limit high-affinity interactions of MBLAC1 with Cef-conjugated beads. As radiolabeled Cef was unavailable, a non-isotopic approach that could examine Cef/MBLAC1 interactions without ligand immobilization was sought. Backscattering interferometry is a sensitive approach that can detect both kinetic and equilibrium associations of unlabeled, small molecule interactions with unmodified target proteins (Bornhop et al., Science vol. 317, 1732-1736, 2007). […] BSI signals were eliminated by heat denaturation of extracts prior to analysis, consistent with Cef binding as arising from a proteinaceous species versus TET used to induce MBLAC1 expression.
To assess the binding of unlabeled Cef with MBLAC1 in cell and tissue lysates, BSI was utilized. A BSI instrument was assembled and employed (Kussrow et al., Anal Chem 84, 779-792, 2012). Briefly, BSI, using a semi-circular chip, a helium-neon laser, and CCD camera, allows for high-sensitivity, refractive index (RI) sensing. The RI signal is obtained by isolating shifts in the backscattered fringes by Fourier analysis. RI changes are quantified by comparing fringe shifts between test and reference samples.
Lysates for BSI contained Cef at concentrations of 0 μM, 5 μM, and 50 μM and concentrations of either 300 μg/mL (mouse cell lysates) or 100 μg/mL (human cell lysates and mouse brain lysates) protein. Samples were incubated on ice for 1 hr prior to analysis to favor equilibrium binding conditions. To obtain BSI signals, the sample with 0 μM Cef was injected into the channel in a stop-flow manner using a vacuum and allowed to reach temperature and pressure equilibrium (˜10 sec) at which point the phase value (BSI signal) was measured for 20 sec. Specific BSI signal was determined by subtracting Cef only signal from Cef-lysate signals. […]

MBLAC1 [3] = target: T2, MBLAC1 (Mus musculus, UniProt Q8BWY4); assay: BSI binding assay, mouse frontal cortex lysates with and without MBLAC1 immunodepletion
T2 construct: from tissue; host or cells: frontal cortex of wild type C57BL/6J mice, 100,000 x g supernatant
T2 sequence (Q8BWY4 1-260): T1 sequence (Q8BWY4 1-260)
Description: To detect endogenous Cef binding and to determine whether MBLAC1 is likely to be responsible for observed interactions, the BSI experiments were repeated using mouse frontal cortex lysates, with and without prior heat denaturation. To determine whether, and to what degree, Cef binding signals derive from MBLAC1, BSI studies were performed on lysates that had been immunodepleted of MBLAC1 protein by anti-MBLAC1 antibody (#80). […] These findings support the contention that, under these binding conditions, MBLAC1 is likely the primary species in brain lysates capable of interacting with Cef at high-affinity—that the well-replicated actions Cef in the CNS arise through MBLAC1 interactions.
Wild type C57BL/6J mice (Jackson Labs, Bar Harbor, Me.) were rapidly decapitated and frontal cortex was dissected. […] Supernatants were collected, diluted with 2× lysis buffer (40 mM HEPES, 220 mM KCl, 20 mM NaCl, 4 mM MgCl, 10 mM KH2PO4, 500 μM ZnSO4) and protein concentration determined (BCA Protein Assay, ThermoFisher, Waltham, Mass.). […]
To assess the binding of unlabeled Cef with MBLAC1 in cell and tissue lysates, BSI was utilized. […] RI changes are quantified by comparing fringe shifts between test and reference samples. […]

human MBLAC1 = target: T3, human MBLAC1 (Homo sapiens, UniProt A4D2B0); assay: Backscattering Interferometry (BSI) binding assay, lysates of T-REx cells expressing human MBLAC1; settings: TET induced vs non-induced T-REx lysates, 5 μM and 50 μM
T3 construct: expressed in transfected cells; host or cells: HEK Flp-In T-REx-293 cells, pcDNA5/FRT/TO, TET-induced, lysate
T3 sequence (A4D2B0 1-266): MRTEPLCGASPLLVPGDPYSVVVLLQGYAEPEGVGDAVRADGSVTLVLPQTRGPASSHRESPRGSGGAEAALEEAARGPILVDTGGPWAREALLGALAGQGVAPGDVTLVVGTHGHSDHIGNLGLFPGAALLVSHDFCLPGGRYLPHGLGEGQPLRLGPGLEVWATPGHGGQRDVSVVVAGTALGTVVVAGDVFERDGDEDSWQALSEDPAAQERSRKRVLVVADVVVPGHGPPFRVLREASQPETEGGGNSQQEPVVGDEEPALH
Description: Although the pulldown approach provided initial evidence of Cef interactions with MBLAC1, the efficiency of competition was lower than expected, based on prior studies reporting the in vitro potency of Cef for GLT-1 induction. It was reasoned that steric hindrance could limit high-affinity interactions of MBLAC1 with Cef-conjugated beads. As radiolabeled Cef was unavailable, a non-isotopic approach that could examine Cef/MBLAC1 interactions without ligand immobilization was sought. […]
To assess the binding of unlabeled Cef with MBLAC1 in cell and tissue lysates, BSI was utilized. […] RI changes are quantified by comparing fringe shifts between test and reference samples.
Lysates for BSI contained Cef at concentrations of 0 μM, 5 μM, and 50 μM and concentrations of either 300 μg/mL (mouse cell lysates) or 100 μg/mL (human cell lysates and mouse brain lysates) protein. […] To obtain BSI signals, the sample with 0 μM Cef was injected into the channel in a stop-flow manner using a vacuum and allowed to reach temperature and pressure equilibrium (˜10 sec) at which point the phase value (BSI signal) was measured for 20 sec. Specific BSI signal was determined by subtracting Cef only signal from Cef-lysate signals. […]

Compound | Effect of Cef pretreatment on cocaine-induced locomotion in MBLAC1 KO mice [1] | Effect of Cef pretreatment on cocaine-induced locomotion in MBLAC1 WT mice [1] | Effect of Cef pretreatment on cocaine-induced locomotion in MBLAC1 KO mice ([1]; listed as CEF) | Effect of Cef pretreatment on cocaine-induced locomotion in MBLAC1 WT mice ([1]; listed as CEF) | Mean reduction in MBLAC1 binding to immobilized Cef (MBLAC1 [2]) [%] | BSI binding signal (mouse MBLAC1) | Kd (mouse MBLAC1; lysate from mouse MBLAC1 expressing cells, Cef 0.78 μM to 50 μM, r2=0.96, read-out: KD for binding (single site binding equation fit to BSI data)) [nM] | BSI binding signal in MBLAC1-immunodepleted mouse frontal cortex lysate (MBLAC1 [3]; immunodepleted with MBLAC1 antibody #80) | BSI binding signal in mouse frontal cortex lysate (MBLAC1 [3]; non-depleted lysate, 5 μM and 50 μM) | BSI binding signal (human MBLAC1)
CO/N=C(\C(=O)N[C@@H]1C(=O)N2C(C(=O)O)=C(CSc3nc(=O)c(=O)[nH]n3C)CS[C@H]12)c1csc(N)n1 [Cef, ceftriaxone] | no ability to attenuate cocaine actions | the locomotor activating effects of cocaine were lost | had no effect on the response to cocaine | completely blocked the effects of cocaine | 52.4±9.3 | significant, dose-dependent BSI signals were detected only in induced cell lysates; also recorded: concentration-dependent, heat-sensitive BSI binding signals | 2200 | the Cef binding signal was abolished; also recorded: eliminated Cef binding activity | shows binding signal with Cef | significant, dose-dependent BSI signals were detected only in induced cell lysates; also recorded: concentration-dependent, heat-sensitive BSI binding signals
CC(=O)OCC1=C(C(=O)O)N2C(=O)[C@@H](NC(=O)CCC[C@@H](N)C(=O)O)[C@H]2SC1 [CephC, cephalosporin C] | – | – | – | – | – | a significant CephC BSI signal (FIG. 3D) was not seen; also recorded: non-significant reduction in BSI signal | – | – | – | –
